Experimental data published in ChEMBL document CHEMBL3867449, “Cytotoxic and Antibacterial Preussomerins from the Mangrove Endophytic Fungus Lasiodiplodia theobromae ZJ-HQ1” (J Nat Prod, 2016).
In brackets after ≈: the same amount, converted by molar mass.

How the values were obtained:
Bacillus spizizenii = experiment: Antibacterial activity against Bacillus subtilis ATCC 6633 by broth dilution method; assay type: functional
Pseudomonas aeruginosa = experiment: Antibacterial activity against Pseudomonas aeruginosa ATCC 27853 by broth dilution method; assay type: functional
[1] = Cytotoxicity against human HeLa cells assessed as decrease in cell viability after 72 hrs by MTS assay; assay type: functional, cell-based
[2] = Cytotoxicity against human A549 cells assessed as decrease in cell viability after 72 hrs by MTS assay; assay type: functional, cell-based; settings: A549, 72 h
[3] = Cytotoxicity against human HepG2 cells assessed as decrease in cell viability after 72 hrs by MTS assay; assay type: functional, cell-based; settings: HepG2, 72 h
Salmonella enteritidis = experiment: Antibacterial activity against Salmonella enteritidis ATCC 13076 by broth dilution method; assay type: functional, Salmonella enterica subsp. enterica serovar Enteritidis; settings: Salmonella enterica
[4] = Cytotoxicity against HEK293T cells assessed as decrease in cell viability after 72 hrs by MTS assay; assay type: toxicity, cell-based, HEK-293T; settings: human
Escherichia coli = experiment: Antibacterial activity against Escherichia coli ATCC 25922 by broth dilution method; assay type: functional
Staphylococcus aureus = experiment: Antibacterial activity against Staphylococcus aureus ATCC 12598 by broth dilution method; assay type: functional
[5] = Cytotoxicity against human MCF7 cells assessed as decrease in cell viability after 72 hrs by MTS assay; assay type: functional, cell-based; settings: MCF7, 72 h

MIC (Bacillus spizizenii) | MIC (Pseudomonas aeruginosa) | MIC (Salmonella enteritidis) | MIC (Escherichia coli) | MIC (Staphylococcus aureus) | Compound | IC50 [1] | IC50 [2] | IC50 [3] | IC50 at 72 h [4] | IC50 [5]
25 µg/mL (≈ 65.7 µM) | > 50 µg/mL | > 50 µg/mL | > 50 µg/mL | 50 µg/mL (≈ 131 µM) | O=C1C[C@@H](O)[C@]23Oc4ccc(O)c5c4[C@](Oc4cccc1c42)(O3)[C@@H]1O[C@@H]1C5=O | 15 µM | 5.4 µM | 3.8 µM | 9.4 µM | 2.5 µM
50 µg/mL (≈ 116 µM) | > 50 µg/mL | > 50 µg/mL | > 50 µg/mL | 6.2 µg/mL (≈ 14.4 µM) | CO[C@@H]1CC(=O)c2cccc3c2[C@@]12Oc1ccc(O)c4c1[C@](O3)(O2)[C@H](O)[C@H](Cl)C4=O | 19 µM | 8.5 µM | 13 µM | 4.8 µM | 5.9 µM
13 µg/mL (≈ 35.7 µM) | > 50 µg/mL | > 50 µg/mL | > 50 µg/mL | 1.6 µg/mL (≈ 4.39 µM) | O=C1CC[C@]23Oc4ccc(O)c5c4[C@](Oc4cccc1c42)(O3)[C@@H]1O[C@@H]1C5=O | 19 µM | 9.4 µM | 4.4 µM | 12 µM | 2.6 µM
25 µg/mL (≈ 68.6 µM) | > 50 µg/mL | > 50 µg/mL | > 50 µg/mL | 13 µg/mL (≈ 35.7 µM) | O=C1c2c(O)ccc3c2[C@@]2(Oc4cccc5c4[C@](C=C[C@@H]5O)(O3)O2)[C@@H]2O[C@H]12 | 18 µM | 7.7 µM | 3.6 µM | 6.9 µM | 3.1 µM
13 µg/mL (≈ 35.5 µM) | > 50 µg/mL | > 50 µg/mL | > 50 µg/mL | 6.2 µg/mL (≈ 16.9 µM) | Oc1ccc2c3c1[C@@H](O)[C@H]1O[C@H]1[C@]31Oc3cccc4c3[C@](C=C[C@@H]4O)(O2)O1 | > 100 µM | 40.2 µM | > 100 µM | > 100 µM | 71 µM
50 µg/mL (≈ 138 µM) | > 50 µg/mL | > 50 µg/mL | > 50 µg/mL | 13 µg/mL (≈ 35.9 µM) | O=C1C=C[C@]23Oc4ccc(O)c5c4[C@](Oc4cccc1c42)(O3)[C@@H]1O[C@@H]1C5=O | 14 µM | 6.2 µM | 8.5 µM | 17 µM | 4.2 µM

The remaining lines, values behind:

Compound | MIC (Bacillus spizizenii) | MIC (Pseudomonas aeruginosa) | MIC (Salmonella enteritidis) | MIC (Escherichia coli) | MIC (Staphylococcus aureus) | IC50 [1] | IC50 [2] | IC50 [3] | IC50 at 72 h [4] | IC50 [5]
CO[C@@H]1[C@H](Cl)C(=O)c2c(O)ccc3c2[C@@]12Oc1cccc4c1[C@](O3)(O2)[C@H](OC)CC4=O | 25 µg/mL (≈ 56.2 µM) | > 50 µg/mL | > 50 µg/mL | > 50 µg/mL | 3.2 µg/mL (≈ 7.19 µM) | 27 µM | 8.9 µM | 7.7 µM | 11 µM | 6.2 µM
CO[C@@H]1CC(=O)c2cccc3c2[C@@]12Oc1ccc(O)c4c1[C@](O3)(O2)[C@H](O)CC4=O |  |  |  |  |  | > 100 µM | 36.1 µM | 83 µM | 83 µM | 13 µM
O=C1CC[C@]23Oc4ccc(O)c5c4[C@](Oc4cccc1c42)(O3)[C@@H]1O[C@@H]1[C@@H]5O |  |  |  |  |  | > 100 µM | 76.2 µM | > 100 µM | 86 µM | > 100 µM
O=C(O)c1cn(C2CC2)c2cc(N3CCNCC3)c(F)cc2c1=O [CIPROFLOXACIN] | 0.5 µg/mL (≈ 1.51 µM) |  | 0.25 µg/mL (≈ 0.754 µM) |  | 0.25 µg/mL (≈ 0.754 µM) |  |  |  |  | 
COc1cccc2c1C(=O)c1c(O)c3c(c(O)c1C2=O)C[C@@](O)(C(=O)CO)C[C@@H]3O[C@H]1C[C@H](N)[C@@H](O)[C@H](C)O1 [EPIRUBICIN] |  |  |  |  |  | 0.42 µM | 0.63 µM |  |  | 0.71 µM
CO[C@@H]1CC(=O)c2cccc3c2[C@@]12Oc1ccc(O)c4c1[C@](O3)(O2)[C@@H]1O[C@@H]1[C@@H]4O [PREUSSOMERIN C] | > 50 µg/mL | > 50 µg/mL | > 50 µg/mL | > 50 µg/mL | > 50 µg/mL | > 100 µM | > 100 µM | > 100 µM | > 100 µM | > 100 µM
O=C1C=C[C@]23Oc4ccc(O)c5c4[C@](Oc4cccc1c42)(O3)[C@@H]1O[C@@H]1[C@@H]5O [PREUSSOMERIN D] |  |  |  |  |  | 21 µM | 6.6 µM | 38 µM | 24 µM | 9.8 µM
